# Experimental data as given in ChEMBL document CHEMBL4219125, “Small molecule modulators of PCSK9 - A literature and patent overview” (Bioorg Med Chem Lett, 2018).
# Square brackets hold non-standard residues; d marks the D form. Peptide text beside a SMILES is read from it. hArg = N=C(N)NCCCC[C@H](N)C(=O)O
# What was measured:
# [1] = target: T1, Proprotein convertase subtilisin/kexin type 9 (Homo sapiens, UniProt Q8NBP7); assay: Inhibition of PCSK9 (unknown origin) at 1.25 uM
# [2] = target: T1, Proprotein convertase subtilisin/kexin type 9; assay: Inhibition of PCSK9 (unknown origin) expressed in human HepG2 cells assessed as increase in LDL uptake at 100 uM; format: cell-based; design: scale not given: the % may be the effect or the level left
# [3] = target: T1, Proprotein convertase subtilisin/kexin type 9; assay: Inhibition of PCSK9 in human HepG2 cells assessed as increase in uptake of fluorescent Dil-LDL at 0.37 uM relative to control; format: cell-based
# [4] = target: T1, Proprotein convertase subtilisin/kexin type 9; assay: Inhibition of PCSK9 in human HepG2 cells assessed as increase in uptake of fluorescent Dil-LDL at 1.5 uM relative to control; format: cell-based
# [5] = target: T1, Proprotein convertase subtilisin/kexin type 9; assay: Inhibition of recombinant PCSK9 (unknown origin) expressed in human HepG2 cells assessed as increase in LDLR expression levels relative to control; format: cell-based; design: scale not given: the % may be the effect or the level left
# [6] = target: T1, Proprotein convertase subtilisin/kexin type 9; assay: Inhibition of recombinant PCSK9 (unknown origin) expressed in human HepG2 cells assessed as increase in LDL uptake at 10 uM after 16 hrs by fluorescence assay; format: cell-based; design: scale not given: the % may be the effect or the level left
# [7] = target: T1, Proprotein convertase subtilisin/kexin type 9; assay: Inhibition of recombinant PCSK9 (unknown origin) expressed in human HepG2 cells assessed as increase in LDL uptake at 0.31 uM after 16 hrs by fluorescence assay; format: cell-based; design: scale not given: the % may be the effect or the level left
# [8] = target: T1, Proprotein convertase subtilisin/kexin type 9; assay: Inhibition of recombinant human C-terminal His8-tagged PCSK9 expressed in Chinese hamster ovary cells by TR-FRET assay; format: cell-based
# HepG2 = assay: Inhibition of PCSK9 production in human HepG2 cells after 24 hrs by ELISA; format: functional, cell-based; details: HepG2, 24 h
# Hamster [9] = assay: In vivo inhibition of PCSK9 in dietary hyperlipidemia hamster model assessed as reduction in blood LDL-c level at 0.01 mg/kg, po administered daily for 7 days; format: functional; details: Cricetinae, 168 h
# Hamster [10] = assay: In vivo inhibition of PCSK9 in dietary hyperlipidemia hamster model assessed as reduction in blood LDL-c level at 0.04 mg/kg, po administered daily for 7 days; format: functional; details: Cricetinae, 168 h
# [11] = target: T1, Proprotein convertase subtilisin/kexin type 9; assay: Inhibition of PCSK9 in human HuH7 cells assessed as increase in cell surface LDLR expression level at 100 uM by FACS analysis relative to control; format: cell-based; design: scale not given: the % may be the effect or the level left
# [12] = target: T1, Proprotein convertase subtilisin/kexin type 9; assay: Inhibition of PCSK9 in human HuH7 cells assessed as increase in LDL uptake by FACS analysis; format: cell-based; design: scale not given: the % may be the effect or the level left
# [13] = target: T1, Proprotein convertase subtilisin/kexin type 9; assay: Inhibition of PCSK9 (unknown origin) expressed in human HepG2 cells assessed as increase in LDL uptake at 0.5 uM; format: cell-based; design: scale not given: the % may be the effect or the level left
# [14] = Ratio of drug level in liver to plasma in monkey at 30 mg/kg, po; format: ADME, organism-based, Macaca mulatta; details: rhesus monkey, liver and plasma
# [15] = target: T1, Proprotein convertase subtilisin/kexin type 9; assay: Inhibition of PCSK9 in human HepG2 cells assessed as increase in LDL receptor levels at 200 uM after 18 to 24 hrs by Western blot analysis relative to control; format: cell-based
# Huh-7 = assay: Inhibition of PCSK9 expression in human HuH7 cells after overnight incubation by ELISA; format: functional, cell-based
# [16] = target: T1, Proprotein convertase subtilisin/kexin type 9; assay: Inhibition of binding of full-length recombinant human PCSK9 (M1 to Q692 residues) expressed in HEK293 cells to full-length LDLR (A1 to A699 residues) by SPR analysis
# Mus musculus = assay: Reduction in plasma total cholesterol level in C57BL/6 mouse at 4 mg/kg, sc administered once daily for 2 weeks with high fat diet by enzymatic method relative to untreated control; format: functional; design: scale not given: the % may be the effect or the level left
# [17] = target: T1, Proprotein convertase subtilisin/kexin type 9; assay: Inhibition of recombinant PCSK9 (unknown origin) expressed in human HepG2 cells assessed as increase in LDL uptake at 1.25 uM after 16 hrs by fluorescence assay; format: cell-based; design: scale not given: the % may be the effect or the level left
# [18] = target: T1, Proprotein convertase subtilisin/kexin type 9; assay: Binding affinity to recombinant human C-terminal His8-tagged PCSK9 expressed in Chinese hamster ovary cells by biolayer interferometry
# [19] = target: T1, Proprotein convertase subtilisin/kexin type 9; assay: Activation of PCSK9 (unknown origin) expressed in human HepG2 cells assessed as decrease in LDL uptake at 25 uM; format: cell-based; design: scale not given: the % may be the effect or the level left; details: hepg2, 25 µM
# Rattus norvegicus [20] = assay: Reduction of circulating PCSK9 level in rat plasma at 50 mg/kg, po administered daily for 14 days; format: functional; details: 336 h
# Rattus norvegicus [21] = assay: In vivo inhibition of PCSK9 in rat plasma assessed as decrease in LDL-c level at 50 mg/kg, po administered daily for 14 days; format: functional; details: 336 h
# Rattus norvegicus [22] = assay: In vivo inhibition of PCSK9 in rat plasma assessed as decrease in total plasma cholesterol level at 50 mg/kg, po administered daily for 14 days; format: functional; details: 336 h
# HeLa = assay: Inhibition of PCSK9 expression in human HeLa cells after overnight incubation by ELISA; format: functional, cell-based
# [23] = target: T1, Proprotein convertase subtilisin/kexin type 9; assay: Inhibition of PCSK9 in human HepG2 cells assessed as increase in LDLR expression levels at 1.6 uM relative to control; format: cell-based
compound,measurement,setting,value
O=S(=O)(Nc1cccc2c1CCCC2)c1ccc(N2CCNCC2)cc1,inhibition,[1],66%
CC(=O)N[C@@H](CO)C(=O)N[C@@H](COP(=O)(O)O)C(=O)N1CCC(c2ccc(C(F)(F)F)cc2)CC1,Activity,[2],105%
CCN(CC)C(=O)c1ccc(NC(=O)CSc2nnc(-c3cccs3)n2C2CC2)cc1,fold change (FC),[3],3
same,fold change (FC),[4],5
Cc1cc2c(cc1-c1ccccc1F)CNCC2,Activity,[5],10%
same,Activity,[6],> 100%
same,Activity,[7],50%
O=S(=O)(Nc1cccc2c1CCCC2)c1ccc(C2CCNCC2)cc1,inhibition,[1],> 50%
CC[C@H](C)[C@H](NC(=O)[C@H](CCCCNC(=N)N)NC(=O)[C@@H](NC(=O)[C@H](CC(C)C)NC(=O)[C@H](CC(N)=O)NC(=O)[C@H](Cc1c[nH]c2ccccc12)NC(=O)CNC(=O)[C@@H]1CCCN1C(=O)[C@H](Cc1ccccc1)NC(=O)[C@H](CO)NC(=O)[C@H](CCC(=O)O)NC(=O)[C@@H](N)CCSC)C(C)C)C(=O)NCC(=O)N[C@@H](CC(C)C)C(=O)N[C@@H](CC(C)C)C(=O)N[C@@H](CCCNC(=N)N)C(=O)O (H-MESFPGWNLV[hArg]IGLLR-OH),IC50,[8],8300 nM
FC(F)(F)c1ccc(-c2nc3ccc(C(F)(F)F)c(Cl)c3o2)cc1,IC50,HepG2,0.036 nM
same,inhibition in vivo at 0.01 mg/kg,Hamster [9],46%
same,inhibition in vivo at 0.04 mg/kg,Hamster [10],57%
H-VTVRFW-OH,Activity,[11],100%
same,Activity,[12],95%
c1ccc2c(c1)NC1CNCCC21 (centres undefined),Activity,[13],60%
CCOC(=O)O[C@@H](C)n1nnnc1-c1c(-c2ccc(C(=O)N(c3ncccc3Cl)[C@@H]3CCCNC3)cc2F)cnn1C [PF-06815345],Kp,[14],28
Cc1ccc(C(=O)Nc2ccc(S(=O)(=O)O)c3cc(S(=O)(=O)O)cc(S(=O)(=O)O)c23)cc1NC(=O)c1cccc(NC(=O)Nc2cccc(C(=O)Nc3cc(C(=O)Nc4ccc(S(=O)(=O)O)c5cc(S(=O)(=O)O)cc(S(=O)(=O)O)c45)ccc3C)c2)c1,fold change (FC),[15],15
COc1ccc(CCC(=O)N(c2nccc3ccccc23)[C@@H]2CCCNC2)cc1,IC50,Huh-7,2200 nM
FC(F)(F)c1ccc(-c2nc3c(ccc4cc[nH]c43)o2)cc1,IC50,HepG2,29.7 nM
Cn1cncc1-c1ncc(-c2ncc(-c3ncc(-c4ccccc4)n3C)n2C)n1C,IC50,[16],11200 nM
CC(C)c1c(C(=O)Nc2ccccc2)c(-c2ccccc2)c(-c2ccc(F)cc2)n1CC[C@@H](O)C[C@@H](O)CC(=O)O [ATORVASTATIN],Activity,Mus musculus,27%
Cc1cc2c(cc1-c1ccccc1F)C(=O)NCC2,Activity,[17],33%
CC(=O)N[C@H](C(=O)N[C@H](C(=O)N[C@@H](Cc1ccccc1)C(=O)N[C@H](C(=O)N[C@@H](CO)C(=O)N[C@@H](Cc1c[nH]c2ccccc12)C(=O)N[C@@H](CCC(=O)O)C(=O)N[C@@H](CCC(=O)O)C(=O)N[C@@H](Cc1ccc(O)cc1)C(=O)N[C@@H](CC(C)C)C(=O)N[C@@H](CC(=O)O)C(=O)N[C@@H](Cc1c[nH]c2ccccc12)C(=O)N[C@H](C(N)=O)C(C)C)[C@@H](C)O)C(C)C)[C@@H](C)O,Kd,[18],700 nM
O=C(N[C@H](CNc1nn[nH]n1)Cc1c[nH]c2ccccc12)[C@H](Cc1ccc(O)cc1)NC(=O)C12CC3CC(CC(C3)C1)C2,Activity,[19],50%
O=C(c1ccc(-n2nnc3cccnc32)cc1)N(c1ncccc1Cl)[C@@H]1CCCNC1,inhibition in vivo at 50 mg/kg,Rattus norvegicus [20],50%
same,inhibition in vivo at 50 mg/kg,Rattus norvegicus [21],58%
same,inhibition in vivo at 50 mg/kg,Rattus norvegicus [22],30%
same,IC50,HeLa,500 nM
Cc1cc(C(=O)C2=C(O)C(=O)N(CCCN3CCOCC3)C2c2ccncc2)ccc1OCc1ccccc1 (centres undefined),Activity,Mus musculus,32%
same,fold change (FC),[23],8
same,fold change (FC),[3],6
same,fold change (FC),[4],10
Cn1ncc(-c2ccc(C(=O)N(c3ncccc3Cl)[C@@H]3CCCNC3)cc2F)c1-c1nnn[nH]1,IC50,HeLa,3700 nM
CC(=O)Nc1ccc2nc(-c3ccc(C(F)(F)F)cc3)oc2c1C(F)(F)F,IC50,HepG2,2.1 nM
